# Experimental data from patent US9511058B2, “Methods for using carboxamide, sulfonamide and amine compounds” (Rigel Pharmaceuticals, Inc., priority 2010, dated 2016).
# Where a name gives a salt, the structure may show the parent alone.
# Target: AMPK
# Test: AMPK activation, enzyme-linked immunosorbent assay
# Assay type: biochemical
# Conditions: compounds of Table 1 (Table 6)
row,EC50 [nM],SMILES
1,< 100,"O=C(NC1CCN(Cc2cccnc2)CC1)c1cc2cc(OC3CCN(c4ccc(C(F)(F)F)cc4)CC3)ccc2o1 [1-101, N-(1-(pyridin-3-ylmethyl)piperidin-4-yl)-5-(1-(4-(trifluoromethyl)phenyl)piperidin-4-yloxy)benzofuran-2-carboxamide]"
2,1000 to 5000,"CN(C(=O)c1cc2cc(OC3CCN(c4ccc(C(F)(F)F)cc4)CC3)ccc2o1)C1CCN(C(=O)OC(C)(C)C)CC1 [1-102, tert-butyl 4-(N-methyl-5-(1-(4-(trifluoromethyl)phenyl)piperidin-4-yloxy)benzofuran-2-carboxamido)piperidine-1-carboxylate]"
3,1000 to 5000,"CN(C(=O)c1cc2cc(OC3CCN(c4ccc(C(F)(F)F)cc4)CC3)ccc2o1)C1CCNCC1 [1-103, N-methyl-N-(piperidin-4-yl)-5-(1-(4-(trifluoromethyl)phenyl)piperidin-4-yloxy)benzofuran-2-carboxamide]"
4,100 to 500,"CN(C(=O)c1cc2cc(OC3CCN(c4ccc(C(F)(F)F)cc4)CC3)ccc2o1)C1CCN(Cc2ccncc2)CC1 [1-104, N-methyl-N-(1-(pyridin-4-ylmethyl)piperidin-4-yl)-5-(1-(4-(trifluoromethyl)phenyl)piperidin-4-yloxy)benzofuran-2-carboxamide]"
5,100 to 500,"O=C(NC1CCN(S(=O)(=O)c2cccnc2)CC1)c1cc2ccc(OC3CCN(c4ccc(C(F)(F)F)cc4)CC3)cc2o1 [1-106, N-(1-(pyridin-3-ylsulfonyl)piperidin-4-yl)-6-(1-(4-(trifluoromethyl)phenyl)piperidin-4-yloxy)benzofuran-2-carboxamide]"
6,< 100,"CN(C(=O)c1cc2cc(OC3CCN(c4ccc(C(F)(F)F)cc4)CC3)ccc2o1)C1CCN(Cc2ccc(C#N)cc2)CC1 [1-107, N-(1-(4-cyanobenzyl)piperidin-4-yl)-N-methyl-5-(1-(4-(trifluoromethyl)phenyl)piperidin-4-yloxy)benzofuran-2-carboxamide]"
7,100 to 500,"O=C(NC1CCN(S(=O)(=O)c2cccnc2)CC1)c1cc2ccc(OC3CCN(c4ccc(OC(F)(F)F)cc4)CC3)cc2o1 [1-108, N-(1-(pyridin-3-ylsulfonyl)piperidin-4-yl)-6-(1-(4-(trifluoromethoxy)phenyl)piperidin-4-yloxy)benzofuran-2-carboxamide]"
8,< 100,"CN(C(=O)c1cc2cc(OC3CCN(c4ccc(C(F)(F)F)cc4)CC3)ccc2o1)C1CCN(Cc2cccnc2)CC1 [1-109, N-methyl-N-(1-(pyridin-3-ylmethyl)piperidin-4-yl)-5-(1-(4-(trifluoromethyl)phenyl)piperidin-4-yloxy)benzofuran-2-carboxamide]"
9,< 100,"CN(C(=O)c1cc2cc(OC3CCN(c4ccc(C(F)(F)F)cc4)CC3)ccc2o1)C1CCN(Cc2cccc(C#N)c2)CC1 [1-110, N-(1-(3-cyanobenzyl)piperidin-4-yl)-N-methyl-5-(1-(4-(trifluoromethyl)phenyl)piperidin-4-yloxy)benzofuran-2-carboxamide]"
10,100 to 500,"CN(C(=O)c1cc2cc(OC3CCN(c4ccc(C(F)(F)F)cc4)CC3)ccc2o1)C1CCN(Cc2ccccc2C#N)CC1 [1-111, N-(1-(2-cyanobenzyl)piperidin-4-yl)-N-methyl-5-(1-(4-(trifluoromethyl)phenyl)piperidin-4-yloxy)benzofuran-2-carboxamide]"
11,< 100,"O=C(NC1CCN(C(=O)c2ccncc2)CC1)c1cc2ccc(OC3CCN(c4ccc(C(F)(F)F)cc4)CC3)cc2o1 [1-112, N-(1-isonicotinoylpiperidin-4-yl)-6-(1-(4-(trifluoromethyl)phenyl)piperidin-4-yloxy)benzofuran-2-carboxamide]"
12,100 to 500,"CC(C)(C)OC(=O)N1CCC(NC(=O)c2cc3cc(OC4CCN(Cc5ccc(C#N)cc5)CC4)ccc3o2)CC1 [1-113, tert-butyl 4-(5-(1-(4-cyanobenzyl)piperidin-4-yloxy)benzofuran-2-carboxamido)piperidine-1-carboxylate]"
13,100 to 500,"N#Cc1ccc(CN2CCC(Oc3ccc4oc(C(=O)NC5CCN(Cc6ccccc6)CC5)cc4c3)CC2)cc1 [1-114, N-(1-benzylpiperidin-4-yl)-5-(1-(4-cyanobenzyl)piperidin-4-yloxy)benzofuran-2-carboxamide]"
14,< 100,"O=C(NC1CCN(C(=O)c2ccncc2)CC1)c1cc2cc(OC3CCN(c4ccc(C(F)(F)F)cc4)CC3)ccc2o1 [1-115, N-(1-isonicotinoylpiperidin-4-yl)-5-(1-(4-(trifluoromethyl)phenyl)piperidin-4-yloxy)benzofuran-2-carboxamide]"
15,100 to 500,"NC(=O)c1ccc(CN2CCC(Oc3ccc4oc(C(=O)NC5CCN(Cc6ccccc6)CC5)cc4c3)CC2)cc1 [1-116, N-(1-benzylpiperidin-4-yl)-5-(1-(4-carbamoylbenzyl)piperidin-4-yloxy)benzofuran-2-carboxamide]"
16,< 100,"CN(C(=O)c1cc2cc(OC3CCN(c4ccc(C(F)(F)F)cc4)CC3)ccc2o1)C1CCN(Cc2ccccn2)CC1 [1-117, N-methyl-N-(1-(pyridin-2-ylmethyl)piperidin-4-yl)-5-(1-(4-(trifluoromethyl)phenyl)piperidin-4-yloxy)benzofuran-2-carboxamide]"

# Further lines, the compound ahead of its results:
row,SMILES,EC50 [nM]
1,"O=C(NC1CCNCC1)c1cc2cc(OC3CCN(c4ccc(C(F)(F)F)cc4)CC3)ccc2o1 [1-86, N-(piperidin-4-yl)-5-(1-(4-(trifluoromethyl)phenyl)piperidin-4-yloxy)benzofuran-2-carboxamide]",> 10000
2,"O=C(NC1CCN(Cc2ccncc2)CC1)c1cc2ccc(OC3CCN(c4ccc(C(F)(F)F)cc4)CC3)cc2o1 [1-87, N-(1-(pyridin-4-ylmethyl)piperidin-4-yl)-6-(1-(4-(trifluoromethyl)phenyl)piperidin-4-yloxy)benzofuran-2-carboxamide]",< 100
3,"O=C(NC1CCN(Cc2ccncc2)CC1)c1cc2ccc(OC3CCN(c4ccc(OC(F)(F)F)cc4)CC3)cc2o1 [1-88, N-(1-(pyridin-4-ylmethyl)piperidin-4-yl)-6-(1-(4-(trifluoromethoxy)phenyl)piperidin-4-yloxy)benzofuran-2-carboxamide]",< 100
4,"N#Cc1ccc(CN2CCC(NC(=O)c3cc4ccc(OC5CCN(c6ccc(OC(F)(F)F)cc6)CC5)cc4o3)CC2)cc1 [1-89, N-(1-(4-cyanobenzyl)piperidin-4-yl)-6-(1-(4-(trifluoromethoxy)phenyl)piperidin-4-yloxy)benzofuran-2-carboxamide]",< 100
5,"N#Cc1ccc(CN2CCC(NC(=O)c3cc4ccc(OC5CCN(c6ccc(C(F)(F)F)cc6)CC5)cc4o3)CC2)cc1 [1-90, N-(1-(4-cyanobenzyl)piperidin-4-yl)-6-(1-(4-(trifluoromethyl)phenyl)piperidin-4-yloxy)benzofuran-2-carboxamide]",< 100
6,"O=C(NC1CCN(Cc2ccc(F)cc2)CC1)c1cc2ccc(OC3CCN(c4ccc(C(F)(F)F)cc4)CC3)cc2o1 [1-91, N-(1-(4-fluorobenzyl)piperidin-4-yl)-6-(1-(4-(trifluoromethyl)phenyl)piperidin-4-yloxy)benzofuran-2-carboxamide]",> 10000
7,"O=C(NC1CCN(Cc2ccccn2)CC1)c1cc2ccc(OC3CCN(c4ccc(OC(F)(F)F)cc4)CC3)cc2o1 [1-92, N-(1-(pyridin-2-ylmethyl)piperidin-4-yl)-6-(1-(4-(trifluoromethoxy)phenyl)piperidin-4-yloxy)benzofuran-2-carboxamide]",500 to 1000
8,"O=C(NC1CCN(Cc2ccccn2)CC1)c1cc2ccc(OC3CCN(c4ccc(C(F)(F)F)cc4)CC3)cc2o1 [1-93, N-(1-(pyridin-2-ylmethyl)piperidin-4-yl)-6-(1-(4-(trifluoromethyl)phenyl)piperidin-4-yloxy)benzofuran-2-carboxamide]",100 to 500
9,"O=C(NC1CCN(Cc2ccc(F)cc2)CC1)c1cc2ccc(OC3CCN(c4ccc(OC(F)(F)F)cc4)CC3)cc2o1 [1-94, N-(1-(4-fluorobenzyl)piperidin-4-yl)-6-(1-(4-(trifluoromethoxy)phenyl)piperidin-4-yloxy)benzofuran-2-carboxamide]",< 100
10,"O=C(NC1CCN(Cc2cccnc2)CC1)c1cc2ccc(OC3CCN(c4ccc(OC(F)(F)F)cc4)CC3)cc2o1 [1-95, N-(1-(pyridin-3-ylmethyl)piperidin-4-yl)-6-(1-(4-(trifluoromethoxy)phenyl)piperidin-4-yloxy)benzofuran-2-carboxamide]",< 100
11,"O=C(NC1CCN(Cc2cccnc2)CC1)c1cc2ccc(OC3CCN(c4ccc(C(F)(F)F)cc4)CC3)cc2o1 [1-96, N-(1-(pyridin-3-ylmethyl)piperidin-4-yl)-6-(1-(4-(trifluoromethyl)phenyl)piperidin-4-yloxy)benzofuran-2-carboxamide]",< 100
12,"N#Cc1ccccc1CN1CCC(NC(=O)c2cc3ccc(OC4CCN(c5ccc(OC(F)(F)F)cc5)CC4)cc3o2)CC1 [1-97, N-(1-(2-cyanobenzyl)piperidin-4-yl)-6-(1-(4-(trifluoromethoxy)phenyl)piperidin-4-yloxy)benzofuran-2-carboxamide]",< 100
13,"N#Cc1ccccc1CN1CCC(NC(=O)c2cc3ccc(OC4CCN(c5ccc(C(F)(F)F)cc5)CC4)cc3o2)CC1 [1-98, N-(1-(2-cyanobenzyl)piperidin-4-yl)-6-(1-(4-(trifluoromethyl)phenyl)piperidin-4-yloxy)benzofuran-2-carboxamide]",< 100
14,"O=C(NC1CCN(Cc2ccc(C(F)(F)F)cc2)CC1)c1cc2ccc(OC3CCN(c4ccc(C(F)(F)F)cc4)CC3)cc2o1 [1-99, N-(1-(4-(trifluoromethyl)benzyl)piperidin-4-yl)-6-(1-(4-(trifluoromethyl)phenyl)piperidin-4-yloxy)benzofuran-2-carboxamide]",< 100
15,"O=C(NC1CCN(Cc2ccc(C(F)(F)F)cc2)CC1)c1cc2cc(OC3CCN(c4ccc(C(F)(F)F)cc4)CC3)ccc2o1 [1-100, N-(1-(4-(trifluoromethyl)benzyl)piperidin-4-yl)-5-(1-(4-(trifluoromethyl)phenyl)piperidin-4-yloxy)benzofuran-2-carboxamide]",< 100

# Same assay, conditions: compounds of Table 1 (Table 6), formate salt
row,EC50 [nM],SMILES
1,< 100,"O=C(NC1CCN(Cc2ccncc2)CC1)c1cc2cc(OC3CCN(c4ccc(C(F)(F)F)cc4)CC3)ccc2o1 [1-105, N-(1-(pyridin-4-ylmethyl)piperidin-4-yl)-5-(1-(4-(trifluoromethyl)phenyl)piperidin-4-yloxy)benzofuran-2-carboxamide, formate salt]"
